Test system: KRAS-mutant PDC complex spheroid viability
Assay: Anticancer human tumor 186277-243-T-J2-PDC patient-derived colon adenocarcinoma cell line growth inhibition [KRAS2]
Conditions: for IC50: curve of first compound; for viability, T/C: stronger effect = lower value; active = viability on the fitted dose curve at most 10% of control; inactive = the rest
Summary of the method: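 Combination screen of spheroid viability in tumor-cell co-cultures with endothelial (HUVEC) and mesenchymal stem cell stroma. Each agent was tested in half-log dilutions, topping at clinical Cmax or at 10 microM without a known Cmax.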
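For viability, T/C in this document: viability read after seven days of compound exposure; 100% = DMSO vehicle-treated spheroids so lower means less viable.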

CC1OCC2(CCN(c3cnc(Sc4ccnc(N)c4Cl)c(N)n3)CC2)C1N (stereo not given) + COc1cc2nc(C)nc(NC(C)c3cc(N)cc(C(F)(F)F)c3)c2cc1OC1CCOC1
1.52 µM: IC50 (second compound 10 µM)
> 10 µM: IC50 (second compound 0.1 µM) | IC50 (second compound 0.316 µM) | IC50 (second compound 1 µM) | IC50 (second compound 3.16 µM)
inactive: viability, T/C (second compound 0.1 µM, first compound 0.0316 µM) 103% | viability, T/C (second compound 0.1 µM, first compound 0.1 µM) 96.1% | viability, T/C (second compound 0.1 µM, first compound 0.316 µM) 104% | viability, T/C (second compound 0.1 µM, first compound 1 µM) 108% | viability, T/C (second compound 0.1 µM, first compound 3.16 µM) 109% | viability, T/C (second compound 0.1 µM, first compound 10 µM) 112% | viability, T/C (second compound 0.316 µM, first compound 0.0316 µM) 106% | viability, T/C (second compound 0.316 µM, first compound 0.1 µM) 104% | viability, T/C (second compound 0.316 µM, first compound 0.316 µM) 93.9% | viability, T/C (second compound 0.316 µM, first compound 1 µM) 100% | viability, T/C (second compound 0.316 µM, first compound 3.16 µM) 115% | viability, T/C (second compound 0.316 µM, first compound 10 µM) 98.1% | viability, T/C (second compound 1 µM, first compound 0.0316 µM) 99.9% | viability, T/C (second compound 1 µM, first compound 0.1 µM) 101% | viability, T/C (second compound 1 µM, first compound 0.316 µM) 103% | viability, T/C (second compound 1 µM, first compound 1 µM) 104% | viability, T/C (second compound 1 µM, first compound 3.16 µM) 114% | viability, T/C (second compound 1 µM, first compound 10 µM) 85.4% | viability, T/C (second compound 3.16 µM, first compound 0.0316 µM) 98.9% | viability, T/C (second compound 3.16 µM, first compound 0.1 µM) 87.6% | viability, T/C (second compound 3.16 µM, first compound 0.316 µM) 96.7% | viability, T/C (second compound 3.16 µM, first compound 1 µM) 114% | viability, T/C (second compound 3.16 µM, first compound 3.16 µM) 111% | viability, T/C (second compound 3.16 µM, first compound 10 µM) 78.8% | viability, T/C (second compound 10 µM, first compound 0.0316 µM) 93.6% | viability, T/C (second compound 10 µM, first compound 0.1 µM) 96.7% | viability, T/C (second compound 10 µM, first compound 0.316 µM) 93.5% | viability, T/C (second compound 10 µM, first compound 1 µM) 50.5% | viability, T/C (second compound 10 µM, first compound 3.16 µM) 39% | viability, T/C (second compound 10 µM, first compound 10 µM) 9.31%

From PubChem BioAssay AID1963875 (Molecular Pharmacology Branch, DTP, NCI, 2024)
